Test results: publication PMC5218480 (PLoS ONE, 2017)

Test system: MV-4-11 cells
Assay: Gene expression microarray analysis (Affymetrix PrimeView) and GSEA
Type: cell-based, human
Set-up: RFU PODN (11730768_x_at) / Fold change /veh PODN (11730768_x_at) / RFU LINC00158 (11744669_a_at) / Fold change /veh LINC00158 (11744669_a_at) / RFU DUSP10 (11751237_a_at) / Fold change /veh DUSP10 (11751237_a_at) / RFU ID3 (11757404_x_at) / Fold change /veh ID3 (11757404_x_at) / RFU PLEKHG5 (11737974_s_at) / Fold change /veh PLEKHG5 (11737974_s_at) / RFU LRRC4B (11730491_at) / Fold change /veh LRRC4B (11730491_at) / RFU GIMAP4 (11747438_a_at) / Fold change /veh GIMAP4 (11747438_a_at) / RFU KRT8 (11758183_x_at) / Fold change /veh KRT8 (11758183_x_at) / RFU CNN1 (11734310_a_at) / Fold change /veh CNN1 (11734310_a_at) / RFU VPS37D (11726825_at) / Fold change /veh VPS37D (11726825_at) / RFU C10orf10 (11716522_x_at) / Fold change /veh C10orf10 (11716522_x_at) / RFU KIR2DL2 /// KIR2DL4 /// KIR2DL5A /// KIR2DL5B /// KIR2DS1 /// KIR2DS2 /// KIR2DS3 /// KIR2DS4 /// KIR3DL3 /// KIR3DL3 /// KIR3DS1 (11738374_at) / Fold change /veh KIR2DL2 /// KIR2DL4 /// KIR2DL5A /// KIR2DL5B /// KIR2DS1 /// KIR2DS2 /// KIR2DS3 /// KIR2DS4 /// KIR3DL3 /// KIR3DL3 /// KIR3DS1 (11738374_at) / RFU C1QL1 (11718748_at) / Fold change /veh C1QL1 (11718748_at) / RFU TMPRSS4 (11747572_a_at) / Fold change /veh TMPRSS4 (11747572_a_at) / RFU HAMP (11756126_x_at) / Fold change /veh HAMP (11756126_x_at) / RFU RNFT2 (11725882_a_at) / Fold change /veh RNFT2 (11725882_a_at) / RFU NR4A2 (11747474_a_at) / Fold change /veh NR4A2 (11747474_a_at) / RFU ABCC12 (11746883_a_at) / Fold change /veh ABCC12 (11746883_a_at) / RFU TMEM136 (11760407_x_at) / Fold change /veh TMEM136 (11760407_x_at) / RFU CLDN22 /// WWC2 (11732394_at) / Fold change /veh CLDN22 /// WWC2 (11732394_at) / RFU HLA-DPB1 (11760878_x_at) / Fold change /veh HLA-DPB1 (11760878_x_at) / RFU SPINT1 (11716480_a_at) / Fold change /veh SPINT1 (11716480_a_at) / RFU GAP43 (11754022_s_at) / Fold change /veh GAP43 (11754022_s_at) / RFU A4GNT (11735810_at) / Fold change /veh A4GNT (11735810_at) / RFU PRB3 (11715151_x_at) / Fold change /veh PRB3 (11715151_x_at) / RFU TUBB4B (11761932_at) / Fold change /veh TUBB4B (11761932_at) / RFU CAPN14 (11732068_a_at) / Fold change /veh CAPN14 (11732068_a_at) / RFU TMCC2 (11721928_a_at) / Fold change /veh TMCC2 (11721928_a_at) / RFU IRGQ (11745062_a_at) / Fold change /veh IRGQ (11745062_a_at) / RFU FAM174B (11720279_a_at) / Fold change /veh FAM174B (11720279_a_at) / RFU TMPRSS4 (11748680_a_at) / Fold change /veh TMPRSS4 (11748680_a_at) / RFU FAM212B (11763350_a_at) / Fold change /veh FAM212B (11763350_a_at) / RFU PLEKHG5 (11743358_a_at) / Fold change /veh PLEKHG5 (11743358_a_at) / RFU ZSCAN30 (11745921_a_at) / Fold change /veh ZSCAN30 (11745921_a_at) / RFU CMKLR1 (11741424_a_at) / Fold change /veh CMKLR1 (11741424_a_at) / RFU LOC101060620 /// MAPK8IP1 (11723275_at) / Fold change /veh LOC101060620 /// MAPK8IP1 (11723275_at) / RFU SPTSSB (11747773_x_at) / Fold change /veh SPTSSB (11747773_x_at) / RFU PRSS12 (11739890_at) / Fold change /veh PRSS12 (11739890_at) / RFU BIN1 (11741810_x_at) / Fold change /veh BIN1 (11741810_x_at) / RFU WNT11 (11732464_a_at) / Fold change /veh WNT11 (11732464_a_at) / RFU C10orf10 (11716521_a_at) / Fold change /veh C10orf10 (11716521_a_at) / RFU C5orf56 (11738089_at) / Fold change /veh C5orf56 (11738089_at) / RFU CYB561 (11721691_x_at) / Fold change /veh CYB561 (11721691_x_at) / RFU ANKRD19P (11752326_a_at) / Fold change /veh ANKRD19P (11752326_a_at) / RFU OR2T12 /// OR2T33 /// OR2T8 (11738714_s_at) / Fold change /veh OR2T12 /// OR2T33 /// OR2T8 (11738714_s_at) / RFU VCAN (11748164_a_at) / Fold change /veh VCAN (11748164_a_at) / RFU JSRP1 (11732532_at) / Fold change /veh JSRP1 (11732532_at) / RFU KRTAP10-11 (11738290_x_at) / Fold change /veh KRTAP10-11 (11738290_x_at) / RFU MYO3A (11730013_a_at) / Fold change /veh MYO3A (11730013_a_at) / RFU EBF3 (11725865_a_at) / Fold change /veh EBF3 (11725865_a_at) / RFU CAMK2N1 (11719241_x_at) / Fold change /veh CAMK2N1 (11719241_x_at) / RFU C5orf56 (11738088_a_at) / Fold change /veh C5orf56 (11738088_a_at) / RFU OLFML3 (11715873_a_at) / Fold change /veh OLFML3 (11715873_a_at) / RFU LOC100653217 /// NTM (11731650_a_at) / Fold change /veh LOC100653217 /// NTM (11731650_a_at) / RFU MAPK11 (11762145_a_at) / Fold change /veh MAPK11 (11762145_a_at) / RFU FIZ1 (11724087_x_at) / Fold change /veh FIZ1 (11724087_x_at) / RFU OASL (11726364_x_at) / Fold change /veh OASL (11726364_x_at) / RFU SOX15 (11748057_x_at) / Fold change /veh SOX15 (11748057_x_at) / RFU CD79A (11719716_a_at) / Fold change /veh CD79A (11719716_a_at) / RFU HIST1H1D (11736915_at) / Fold change /veh HIST1H1D (11736915_at) / RFU CASKIN2 (11723855_a_at) / Fold change /veh CASKIN2 (11723855_a_at) / RFU LOC730098 (11760151_x_at) / Fold change /veh LOC730098 (11760151_x_at) / RFU OR4N2 (11742367_at) / Fold change /veh OR4N2 (11742367_at) / RFU PRRT2 (11749266_a_at) / Fold change /veh PRRT2 (11749266_a_at) / RFU SNX32 (11753110_a_at) / Fold change /veh SNX32 (11753110_a_at) / RFU CDHR5 (11726645_a_at) / Fold change /veh CDHR5 (11726645_a_at) / RFU RCAN1 (11760418_a_at) / Fold change /veh RCAN1 (11760418_a_at) / RFU FAM167A (11723789_a_at) / Fold change /veh FAM167A (11723789_a_at) / RFU FAM26E (11764081_at) / Fold change /veh FAM26E (11764081_at) / RFU ISYNA1 (11749810_s_at) / Fold change /veh ISYNA1 (11749810_s_at) / RFU ACY1 (11761880_at) / Fold change /veh ACY1 (11761880_at) / RFU 11764098_at / Fold change /veh 11764098_at / RFU SAMD14 (11745864_x_at) / Fold change /veh SAMD14 (11745864_x_at) / RFU NPB (11741838_a_at) / Fold change /veh NPB (11741838_a_at) / RFU TMPRSS6 (11731388_a_at) / Fold change /veh TMPRSS6 (11731388_a_at) / RFU KRTAP10-2 (11738614_at) / Fold change /veh KRTAP10-2 (11738614_at) / RFU ARHGAP8 /// PRR5-ARHGAP8 (11727945_x_at) / Fold change /veh ARHGAP8 /// PRR5-ARHGAP8 (11727945_x_at) / RFU KRTAP5-7 /// NADSYN1 (11734609_at) / Fold change /veh KRTAP5-7 /// NADSYN1 (11734609_at) / RFU RASL12 (11751679_a_at) / Fold change /veh RASL12 (11751679_a_at) / RFU CDKN2B (11736163_a_at) / Fold change /veh CDKN2B (11736163_a_at) / RFU PRF1 (11729649_at) / Fold change /veh PRF1 (11729649_at) / RFU, ZNF638 /// ZNF638-IT1 / Fold change vs veh, ZNF638 /// ZNF638-IT1 / RFU, PANK3 / Fold change vs veh, PANK3 / RFU, SH3YL1 / Fold change vs veh, SH3YL1 / RFU, ZEB2 / Fold change vs veh, ZEB2 / RFU, NRIP1 / Fold change vs veh, NRIP1 / RFU, PTTG1IP / Fold change vs veh, PTTG1IP / RFU, CAPN2 / Fold change vs veh, CAPN2 / RFU, MED14 / Fold change vs veh, MED14 / RFU, SNORA58 / Fold change vs veh, SNORA58 / RFU, C1orf63 / Fold change vs veh, C1orf63 / RFU, LRRFIP1 / Fold change vs veh, LRRFIP1 / RFU, NDUFAF7 / Fold change vs veh, NDUFAF7 / RFU, SLC12A2 / Fold change vs veh, SLC12A2 / RFU, IBTK / Fold change vs veh, IBTK / RFU, ESF1 / Fold change vs veh, ESF1 / Fold change vs veh, TMEM50B / RFU, TAOK1 / Fold change vs veh, TAOK1 / RFU, ACBD3 / Fold change vs veh, ACBD3 / RFU, TMA16 / Fold change vs veh, TMA16 / RFU, RWDD3 / Fold change vs veh, RWDD3 / RFU, BCAT1 / Fold change vs veh, BCAT1 / RFU, EDEM3 / Fold change vs veh, EDEM3 / RFU, TMEM33 / Fold change vs veh, TMEM33 / RFU, WDR75 / Fold change vs veh, WDR75 / RFU, AHCTF1 / Fold change vs veh, AHCTF1 / RFU, TFRC / Fold change vs veh, TFRC / RFU, ZDHHC17 / Fold change vs veh, ZDHHC17 / RFU, NOM1 / Fold change vs veh, NOM1 / RFU, ARL8B / Fold change vs veh, ARL8B / RFU, ZBTB11 / Fold change vs veh, ZBTB11 / RFU, TAMM41 / Fold change vs veh, TAMM41 / RFU, KIAA1704 /// LOC100996395 / Fold change vs veh, KIAA1704 /// LOC100996395 / RFU, ING1 / Fold change vs veh, ING1 / RFU, TRMT61B / Fold change vs veh, TRMT61B / RFU, FUBP3 / Fold change vs veh, FUBP3 / RFU, TP53 / Fold change vs veh, TP53 / RFU, TNKS2 / Fold change vs veh, TNKS2 / RFU, ZFP14 / Fold change vs veh, ZFP14 / RFU, ACTR2 / Fold change vs veh, ACTR2 / RFU, PPP3R1 / Fold change vs veh, PPP3R1 / RFU, PIK3R1 / Fold change vs veh, PIK3R1 / RFU, HNRNPA1 / Fold change vs veh, HNRNPA1 / RFU, RNF170 / Fold change vs veh, RNF170 / RFU, ZNF28 / Fold change vs veh, ZNF28 / RFU, RNGTT / Fold change vs veh, RNGTT / RFU, OGT / Fold change vs veh, OGT / RFU, BRD1 / Fold change vs veh, BRD1 / RFU, MARS / Fold change vs veh, MARS / RFU, ZNF655 / Fold change vs veh, ZNF655 / RFU, FAHD1 / Fold change vs veh, FAHD1 / RFU, BDP1 / Fold change vs veh, BDP1 / RFU, LRRCC1 / Fold change vs veh, LRRCC1 / RFU, ARID1A / Fold change vs veh, ARID1A / RFU, ZNF146 / Fold change vs veh, ZNF146 / RFU, ZNF330 / Fold change vs veh, ZNF330 / RFU, GPN3 / Fold change vs veh, GPN3 / RFU, C9orf123 / Fold change vs veh, C9orf123 / RFU, N4BP2L2 / Fold change vs veh, N4BP2L2 / RFU, ARFIP1 / Fold change vs veh, ARFIP1 / RFU, FAM179B / Fold change vs veh, FAM179B / RFU, BCL10 / Fold change vs veh, BCL10 / RFU, UHRF1BP1L / Fold change vs veh, UHRF1BP1L / RFU, BET1 / Fold change vs veh, BET1 / RFU, CNOT2 / Fold change vs veh, CNOT2 / RFU, ZNF268 / Fold change vs veh, ZNF268 / Fold change vs veh, ZNF507 / RFU, DGCR2 / Fold change vs veh, DGCR2 / RFU, WDSUB1 / Fold change vs veh, WDSUB1 / Fold change vs veh, HSP90B1 /// MIR3652 / RFU, ADSS / Fold change vs veh, ADSS / RFU, GK / Fold change vs veh, GK / RFU, ZNF148 / Fold change vs veh, ZNF148 / RFU, TAF9 / Fold change vs veh, TAF9 / RFU, SLC1A5 / Fold change vs veh, SLC1A5 / RFU, SLMO2 / Fold change vs veh, SLMO2 / RFU, ABCC4 / Fold change vs veh, ABCC4 / RFU, LOC101060439 /// RAP1B / Fold change vs veh, LOC101060439 /// RAP1B / RFU, RFX7 / Fold change vs veh, RFX7 / RFU, GTPBP10 / Fold change vs veh, GTPBP10 / RFU, CNEP1R1 / Fold change vs veh, CNEP1R1 / RFU, BIVM-ERCC5 /// ERCC5 / Fold change vs veh, BIVM-ERCC5 /// ERCC5 / RFU, ILF3 / Fold change vs veh, ILF3 / RFU 11762660_at / Fold change /veh 11762660_at / RFU VCAN (11757783_s_at) / Fold change /veh VCAN (11757783_s_at) / RFU DDX43 (11728927_at) / Fold change /veh DDX43 (11728927_at) / RFU KRT8 (11758188_x_at) / Fold change /veh KRT8 (11758188_x_at) / RFU NKD1 (11759106_at) / Fold change /veh NKD1 (11759106_at) / RFU SRD5A1 (11742802_a_at) / Fold change /veh SRD5A1 (11742802_a_at) / RFU TPSAB1 /// TPSB2 (11721975_s_at) / Fold change /veh TPSAB1 /// TPSB2 (11721975_s_at) / RFU GSTM3 (11746129_a_at) / Fold change /veh GSTM3 (11746129_a_at) / RFU IL23R (11737362_x_at) / Fold change /veh IL23R (11737362_x_at) / RFU TMEM51 (11727254_a_at) / Fold change /veh TMEM51 (11727254_a_at) / RFU PIWIL2 (11732686_x_at) / Fold change /veh PIWIL2 (11732686_x_at) / RFU ORM1 (11744905_x_at) / Fold change /veh ORM1 (11744905_x_at) / RFU CCDC152 (11743942_at) / Fold change /veh CCDC152 (11743942_at) / RFU ECM1 (11717891_a_at) / Fold change /veh ECM1 (11717891_a_at) / RFU IL23R (11748794_a_at) / Fold change /veh IL23R (11748794_a_at) / RFU TNFAIP8L3 (11732012_x_at) / Fold change /veh TNFAIP8L3 (11732012_x_at) / RFU MBOAT4 (11741988_at) / Fold change /veh MBOAT4 (11741988_at) / RFU 11764193_at / Fold change /veh 11764193_at / RFU TMEM53 (11763286_at) / Fold change /veh TMEM53 (11763286_at) / RFU MAGEB2 (11727129_at) / Fold change /veh MAGEB2 (11727129_at) / RFU TMEM200A (11744735_a_at) / Fold change /veh TMEM200A (11744735_a_at) / RFU CCDC152 (11751479_a_at) / Fold change /veh CCDC152 (11751479_a_at) / RFU FAM211A (11726209_a_at) / Fold change /veh FAM211A (11726209_a_at) / RFU RGS16 (11746705_a_at) / Fold change /veh RGS16 (11746705_a_at) / RFU VCAN (11755009_s_at) / Fold change /veh VCAN (11755009_s_at) / RFU RHOB (11743442_s_at) / Fold change /veh RHOB (11743442_s_at) / RFU RGS16 (11720943_a_at) / Fold change /veh RGS16 (11720943_a_at) / RFU RGS16 (11720944_at) / Fold change /veh RGS16 (11720944_at) / RFU, VPS4B / Fold change vs veh, VPS4B / RFU, CREB1 / Fold change vs veh, CREB1 / RFU, DNAJC13 / Fold change vs veh, DNAJC13 / RFU, GNAQ / Fold change vs veh, GNAQ / RFU, CDK5R1 / Fold change vs veh, CDK5R1 / RFU, ZRANB3 / Fold change vs veh, ZRANB3 / RFU, CUL4A / Fold change vs veh, CUL4A / RFU, CCNY / Fold change vs veh, CCNY / RFU, UFL1 / Fold change vs veh, UFL1 / RFU, COG3 / Fold change vs veh, COG3 / RFU, DIAPH2 / Fold change vs veh, DIAPH2 / RFU, SKA2 / Fold change vs veh, SKA2 / RFU, AFF3 / Fold change vs veh, AFF3 / RFU, LMF1 / Fold change vs veh, LMF1 / RFU, IPO11 / Fold change vs veh, IPO11 / RFU, DFFB / Fold change vs veh, DFFB / RFU, FOXP1 / Fold change vs veh, FOXP1 / RFU, CARD8 / Fold change vs veh, CARD8 / RFU, STRN3 / Fold change vs veh, STRN3 / RFU, ADK / Fold change vs veh, ADK / RFU, RASSF2 / Fold change vs veh, RASSF2 / RFU, WIPF1 / Fold change vs veh, WIPF1 / RFU, LARP1B / Fold change vs veh, LARP1B / RFU, RASA1 / Fold change vs veh, RASA1 / RFU, RB1 / Fold change vs veh, RB1 / RFU, PPFIA1 / Fold change vs veh, PPFIA1 / RFU, MAT2A / Fold change vs veh, MAT2A / RFU, CCT5 / Fold change vs veh, CCT5 / RFU, WDR92 / Fold change vs veh, WDR92 / RFU, CUX1 / Fold change vs veh, CUX1 / RFU, TTC7A / Fold change vs veh, TTC7A / RFU, TMEM135 / Fold change vs veh, TMEM135 / RFU, DEPTOR / Fold change vs veh, DEPTOR / RFU, CPM / Fold change vs veh, CPM / RFU, DNAJB6 / Fold change vs veh, DNAJB6 / RFU, CACNA2D3 / Fold change vs veh, CACNA2D3 / RFU, DTX4 / Fold change vs veh, DTX4 / RFU, TFCP2 / Fold change vs veh, TFCP2 / RFU, GMCL1 /// GMCL1P1 / Fold change vs veh, GMCL1 /// GMCL1P1 / RFU, AEBP2 / Fold change vs veh, AEBP2 / RFU, SNHG1 /// SNORD22 /// SNORD25 /// SNORD26 /// SNORD27 /// SNORD28 /// SNORD29 /// SNORD31 / Fold change vs veh, SNHG1 /// SNORD22 /// SNORD25 /// SNORD26 /// SNORD27 /// SNORD28 /// SNORD29 /// SNORD31 / Fold change (Aza/veh), C12orf56 (ProbeSet 11735607_a_at) / Fold change (ACY-1035/veh), C12orf56 (ProbeSet 11735607_a_at) / Fold change (Aza/veh), FGFR1OP (ProbeSet 11751329_s_at) / Fold change (ACY-1035/veh), FGFR1OP (ProbeSet 11751329_s_at) / Fold change (Aza/veh), VPS36 (ProbeSet 11739960_a_at) / Fold change (ACY-1035/veh), VPS36 (ProbeSet 11739960_a_at) / RFU SYPL1 (11715823_x_at) / Fold change /veh SYPL1 (11715823_x_at) / RFU IGFBP7 (11715501_s_at) / Fold change /veh IGFBP7 (11715501_s_at) / RFU REEP3 (11722064_at) / Fold change /veh REEP3 (11722064_at) / RFU IGLL1 (11728026_x_at) / Fold change /veh IGLL1 (11728026_x_at): dose or concentration left out as unconfirmed
Conditions: MV-4-11 cells, 48 hours

Nc1ccc(-c2cccs2)cc1NC(=O)c1ccc2c(c1)cc(C1CC1)n2CCN1CCOCC1 [ACY-1035]
RFU PLEKHG5 (11737974_s_at): 47.67 RFU
